Assay results taken from patent EP0166969A2, “Haemostyptic” (priority 1984, dated 1986).
“Also recorded” adds a separate entry of the source.

Legend:
[1] = tested on: Schweineleber; test: Comparative haemostyptic efficacy of components, mixtures and esters in rat models and pig liver; type: in vivo, Ratten; settings: qualitative
From the text: Unter einem Hämostypticum versteht man Mittel zur Blutstillung, die sowohl die Blutungszeit als auch den Blutverlust bei mechanischen Verletzungen herabsetzen. Die Blutgerinnung ist ein in den letzten Jahren intensiv untersuchter komplexer Vorgang, der sich in verschiedenster Weise beeinflussen läßt. Die Blutstillung und der Blutverlust hängen wiederum in erster Linie vom Umfang und der Geschwindigkeit der Blutgerinnung ab, jedoch spielen hier auch noch weitere Faktoren mit hinein, die bisher noch nicht ausreichend untersucht und geklärt werden konnten. Eine besondere Schwierigkeit bei der Untersuchung von Hämostyptica ist die Erarbeitung von zuverlässigen und reproduzierbaren Versuchsbedingungen am Menschen und am Tier. Eine umfassende Zusammenstellung der bisher bekannten Methoden sowie die Beschreibung einer verbesserten Methode an der Ratte wird beschrieben in der Dissertation von Ennen 1981, am Institut für Pharmakologie, Toxikologie und Pharmazie der Tierärtzlichen Hochschule Hannover unter Leitung von Prof. Dr. K. Kaemmerer (Methodenbeitrag zur Bestimmung von Blutungszeit und Blutverlust bei Leberparenchymblutungen kleiner Versuchstiere). Im Rahmen dieser Untersuchungen wurden auch verschiedene bekannte Hämostasesysteme vergleichend untersucht. Zu den untersuchten Produkten gehörte auch das Hämostypticum Revici, welches von der Anmelderin seit Jahren vertrieben wird. […] Das Hämostypticum Revici enthält neben geringen Mengen von Zitronensäure, Wasserstoffperoxid und n-Butanol. […] Dabei dienten als Modelle in erster Linie die bereits von Ennen entwickelten Tiermodelle der Ratten sowie ähnliche Versuche an der Schweineleber. Die Untersuchungen wurden zusätzlich ausgedehnt auf mögliche Metaboliten und Zersetzungsprodukte der Zitronensäure, nämlich Cis-Aconitsäure, Acetondicarbonsäure und Itakonsäure.

[2] = Toxicity of the new esters (test not described); settings: qualitative
[3] = tested on: Rattenleber; test: Bleeding time and blood loss in rats according to Ennen (1981), liver parenchymal bleeding; type: in vivo, Ratten; settings: tested oral and IV, standard solutions suspended in 0,9% saline, route of the values not stated
From the text: Unter einem Hämostypticum versteht man Mittel zur Blutstillung, die sowohl die Blutungszeit als auch den Blutverlust bei mechanischen Verletzungen herabsetzen. Die Blutgerinnung ist ein in den letzten Jahren intensiv untersuchter komplexer Vorgang, der sich in verschiedenster Weise beeinflussen läßt. Die Blutstillung und der Blutverlust hängen wiederum in erster Linie vom Umfang und der Geschwindigkeit der Blutgerinnung ab, jedoch spielen hier auch noch weitere Faktoren mit hinein, die bisher noch nicht ausreichend untersucht und geklärt werden konnten. Eine besondere Schwierigkeit bei der Untersuchung von Hämostyptica ist die Erarbeitung von zuverlässigen und reproduzierbaren Versuchsbedingungen am Menschen und am Tier. Eine umfassende Zusammenstellung der bisher bekannten Methoden sowie die Beschreibung einer verbesserten Methode an der Ratte wird beschrieben in der Dissertation von Ennen 1981, am Institut für Pharmakologie, Toxikologie und Pharmazie der Tierärtzlichen Hochschule Hannover unter Leitung von Prof. Dr. K. Kaemmerer (Methodenbeitrag zur Bestimmung von Blutungszeit und Blutverlust bei Leberparenchymblutungen kleiner Versuchstiere). Im Rahmen dieser Untersuchungen wurden auch verschiedene bekannte Hämostasesysteme vergleichend untersucht. Zu den untersuchten Produkten gehörte auch das Hämostypticum Revici, welches von der Anmelderin seit Jahren vertrieben wird. […] Das Hämostypticum Revici enthält neben geringen Mengen von Zitronensäure, Wasserstoffperoxid und n-Butanol. Da bei der Anwendung des Hämostypticums Revici immer wieder schwankende und nicht immer reproduzierbare Ergebnisse beobachtet wurden, wurden eingehende Untersuchungen über die Wirksamkeit aller drei Komponenten und Gemische derselben auf ihre Wirksamkeit hin untersucht. Dabei dienten als Modelle in erster Linie die bereits von Ennen entwickelten Tiermodelle der Ratten sowie ähnliche Versuche an der Schweineleber. Die Untersuchungen wurden zusätzlich ausgedehnt auf mögliche Metaboliten und Zersetzungsprodukte der Zitronensäure, nämlich Cis-Aconitsäure, Acetondicarbonsäure und Itakonsäure.
Die Wirksamkeit der Substanzen wurde sowohl oral als auch IV getestet mit Standardlösungen suspendiert in 0,9%-iger Kochsalzlösung bei Ratten nach Ennen (1981). Gemessen wurden Blutungszeit und Blutverlust in % der Abnahme. Tributylcitrat ergab eine Abnahme der Blutungszeit von 27% und eine Abnahme des Blutverlustes von 44%. Die entsprechenden Werte für Trihexylcitrat lagen bei 20 bzw. 24%. Die Werte für Aconit-tributylester bei 22 bzw. 16% und für Tricarballylsäure-tributylester bei 29 bzw. 8%.

[4] = tested on: Ratte; settings: rat; Merck Index, 10th ed., no. 1513; cited from earlier work
[5] = tested on: Schweine; test: Pig experiments: circulatory effect; type: in vivo; settings: pigs; amount of n-Butanol present in Hämostypticum Revici, given alone
From the text: Bei den Schweineversuchen hat sich beispielsweise gezeigt, daß die im Hämostypticum Revici vorhandene Menge n-Butanol für sich allein schon zu Kreislaufdepressionen führt. […] Die Wirksamkeit kann daher nicht dadurch erklärt werden, daß das TBC im Körper zu Zitronensäure und n-Butanol gespalten wird.

[6] = tested on: Ratte; settings: rat, in vivo, iv
Protocol: (§1) Hierbei ist zu beachten, daß bei der Ratte als maximale Volumenbelastung 20 ml/kg gelten.

[7] = tested on: Ratte; test: Acute toxicity (LD50, oral tolerance) in the rat; type: in vivo
Protocol: as §1

[8] = Acute toxicity (LD50, oral tolerance) in the rat; type: in vivo; settings: in vivo, applicant's own experiments
Protocol: as §1

Compound	hämostyptische Wirksamkeit [1]	Toxizität [2]	Abnahme der Blutungszeit [3]	Abnahme des Blutverlustes [3]	other results
C=C(CC(=O)O)C(=O)O [Itakonsäure]	praktisch wirkungslos				
CCCCOC(=O)CC(CC(=O)OCCCC)C(=O)OCCCC [Tricarballylsäure-tributylester]	durchaus interessante und für die Praxis brauchbare Wirkung	niedriger Toxizität	29%	8%	
CCCCO [n-Butanol]	eine gewisse hämostyptische Wirksamkeit; also recorded: einen gewissen Effekt				LD50 [4]: 4,36 g/kg; Kreislaufwirkung [5]: Kreislaufdepressionen
Wasserstoffperoxid [H202]	einen gewissen Effekt				
CCCCCCOC(=O)CC(O)(CC(=O)OCCCCCC)C(=O)OCCCCCC [Trihexylcitrat]		niedriger Toxizität	20%	24%	
O=C(O)/C=C(/CC(=O)O)C(=O)O [Cis-Aconitsäure]	praktisch wirkungslos				
O=C(O)CC(=O)CC(=O)O [Acetondicarbonsäure]	praktisch wirkungslos				
CCCCOC(=O)C=C(CC(=O)OCCCC)C(=O)OCCCC [Aconit-tributylester]	durchaus interessante und für die Praxis brauchbare Wirkung	niedriger Toxizität	22%	16%	
CCCCOC(=O)CC(O)(CC(=O)OCCCC)C(=O)OCCCC [TBC, Tri-n-butylcitrat]			27%	44%	spontaner Exitus nach Infusion [6]: 19,4 ml/kg; akute oder klinische manifeste Veränderungen ([7]; oral 10 ml/kg (printed as 10,4 mg/kg)): keinerlei akute oder klinische manifeste Veränderungen; akute oder klinische manifeste Veränderungen ([7]; oral 20 ml/kg (printed as 20,8 mg/kg)): keinerlei akute oder klinische manifeste Veränderungen; LD50 [8]: 20800 mg/kg
O=C(O)CC(O)(CC(=O)O)C(=O)O [Zitronensäure]	praktisch wirkungslos				
